Series [1] has as its system L. (L.) infantum promastigotes. The series is described as follows: Antileishmanial activity against promastigotes, MTT assay. Type of series: cell-based, Leishmania (L.) infantum. The conditions noted are these: 48 h at 24°C, highest concentration 200 µM, na = not active, read-out: Promastigotes IC50 (C.I.95%). As for the experimental part:
(§1) L. (L.) infantum (MHOM/BR/1972/LD) promastigotes were maintained in M-199 medium supplemented with 10% fetal bovine serum (FBS) and 0.25% hemin at 24°C. L. (L.) infantum was maintained in golden hamsters for up to approximately 60–70 days post-infection. The amastigotes were obtained from the spleens of previously infected hamsters by differential centrifugation. The macrophages were collected from the peritoneal cavity of BALB/c mice by washing with RPMI-1640 (without phenol red and supplemented with 10% FBS). NCTC (clone 929) murine conjunctive cells were maintained in RPMI-1640 (without phenol red and supplemented with 10% FBS) at 37°C in a humidified containing 5% CO2.
Promastigotes were counted in a Neubauer hemocytometer and seeded at 1×10^6 cells per well in 96-well microplates using miltefosine as standard drug. The tested compounds were incubated at the highest concentration of 200 µM for 48 h at 24°C. Parasite viability was determined using the MTT assay. Briefly, 3-[4,5-dimethylthiazol-2-yl]-2,5-diphenyltetrazolium bromide (MTT) was dissolved in phosphate-buffered saline (PBS) at 5 mg/mL, sterilized through 0.22 µm membranes and incubated with cells (20 µL/well) for 4 h at 24°C. The extraction of the mitochondrial formazan was done with 80 µL of 10% SDS for 18 h at 24°C. The optical density was determined in FilterMax F5 (Molecular Devices) at 570 nm. Promastigotes incubated without compounds were used as the viability control (100% viability) and without cells (blank).
(§2) The obtained data represent the mean and standard deviation of two independent experiments performed in duplicate. The IC50 and CC50 values were calculated using sigmoid dose-response curves performed using GraphPad Prism version 5.0 (GraphPad Software, San Diego, CA, USA), and the 95% confidence intervals (95% CI) were included. The ANOVA test was performed to evaluate the significance (p<0.05) of data.
A general note: Formazan colour is commonly taken as a measure of viable cells.

Series [2] concerns intracellular L. (L.) infantum amastigotes. The series is described as follows: Activity against intracellular amastigotes in infected macrophages, Giemsa counting. The format is cell-based, Leishmania (L.) infantum. The conditions noted are these: for IC50 / Amastigotes IC50 (C.I.95%): BALB/c peritoneal macrophages infected with amastigotes, 120 h at 37°C, na = not active; for IC50: read-out: Amastigotes IC50 (C.I.95%). As for the experimental part: as §1
The activity against intracellular L. (L.) infantum amastigotes was determined in infected macrophages. Macrophages were obtained as previously described and seeded for 24 h at 1×10^5 cells/well in 16-well slide chambers (Nunc). Amastigotes were isolated from the spleens of previously infected hamsters, separated by differential centrifugation and added to the macrophages at a ratio of 1∶10 (macrophage/amastigotes) for 24 h at 37°C. Non-internalized parasites were removed by washing once with medium and the cells were then incubated with the test compounds for 120 h at 37°C in 5% CO2, using miltefosine as standard drug. At the end of the assay, the cells were fixed in methanol, stained with Giemsa and observed under a light microscope to determine the number of intracellular parasites. The number of amastigotes was determined in 400 macrophages from the drug-treated and control wells [15].
as §2

The subject of series [3] is NCTC clone 929 murine conjunctive cells. As to the kind of experiment: Cytotoxicity against mammalian cells, MTT assay. The conditions noted are these: NCTC clone 929, 48 h at 37°C, highest concentration 200 µM; for CC50: read-out: Cytotoxicity CC50 (C.I.95%). The format is cell-based. The procedure: as §1
(§3) NCTC cells were seeded at 6×10^4 cells/well in 96-well microplates at 37°C in a 5% CO2. The mammalian cells were incubated with tested compounds to the highest concentration of 200 µM for 48 h at 37°C, using miltefosine as standard drug. The viability of the cells was determined by MTT assay at 570 nm. The selectivity index (SI) was determined considering the following equation: CC50 NCTC cells/IC50 amastigotes.
as §2

A short description of series [4]: Cytotoxicity against mammalian cells, MTT assay. The conditions noted are these: mouse, NCTC clone 929 murine conjunctive cells, NCTC clone 929, 48 h at 37°C, highest concentration 200 µM, read-out: Cytotoxicity CC50 (C.I.95%). The format is cell-based, murine. As for the experimental part:
as §1, §3, §2

Like-named read-outs stand apart in the source and are kept apart here. A value given as a limit tells only on which side of the number the result lay.

We go through 20 compounds from article PMC4149375, “Potential of 2-Hydroxy-3-Phenylsulfanylmethyl-[1,4]-Naphthoquinones against Leishmania (L.) infantum: Biological Activity and Structure-Activity Relationships” (PLoS ONE, 2014).

For the compound `Cc1ccc(SCC2=C(O)C(=O)c3ccccc3C2=O)cc1` [Compound 1], the IC50 in series [1] and in series [2] was above 200 µM throughout. Besides, the CC50 in series [3] turned out to be 89.1 µM.

Take `O=C1C(O)=C(CSc2ccccc2)C(=O)c2ccccc21` [Compound 2]: in series [1], the IC50 was found to be 124 µM. Moreover, the “Amastigotes IC50 (C.I.95%)” value in series [2] is listed as “no activity”. Also, the CC50 in series [3] was found to be 84.7 µM.

In the case of `COc1ccc(SCC2=C(O)C(=O)c3ccccc3C2=O)cc1` [Compound 3], the IC50 in series [1] came out at 75 µM. The “Amastigotes IC50 (C.I.95%)” value in series [2] is recorded as “no activity”. In series [3], the CC50 was 92.6 µM.

For `O=C1C(O)=C(CSc2ccc(Cl)cc2)C(=O)c2ccccc21` [Compound 4], the IC50 in series [1] was determined as 85.4 µM. Further, in series [2], the “Amastigotes IC50 (C.I.95%)” value is “no activity”. Further, the CC50 in series [3] is 82.2 µM.

Consider `O=C1C(O)=C(CSc2ccc(F)cc2)C(=O)c2ccccc21` [Compound 5], for which the IC50 in series [1] is 129 µM. In addition, the “Amastigotes IC50 (C.I.95%)” value in series [2] was “no activity”. Moreover, in series [3], the half-maximal cytotoxic concentration (CC50) worked out at 97.9 µM.

For `CSc1ccc(SCC2=C(O)C(=O)c3ccccc3C2=O)cc1` [Compound 6], the IC50 in series [1] came to 188 µM. For the same compound, the “Amastigotes IC50 (C.I.95%)” value in series [2] is “no activity”. Further, the CC50 in series [3] was 100 µM.

Regarding `O=C1C(O)=C(CSc2ccc([N+](=O)[O-])cc2)C(=O)c2ccccc21` [Compound 7], in series [1], the IC50 was determined as 8.44 µM. The “Amastigotes IC50 (C.I.95%)” value in series [2] is listed as “no activity”. The CC50 in series [3] stood at 85.5 µM.

Take `CCCSCC1=C(O)C(=O)c2ccccc2C1=O` [Compound 9]: the IC50 in series [1] and in series [2] was above 200 µM throughout. Also, the “Cytotoxicity CC50 (C.I.95%)” value in series [3] is listed as “lack of toxicity”. Moreover, in series [3], the CC50 is above 200 µM.

Regarding `Cc1ccccc1SCC1=C(O)C(=O)c2ccccc2C1=O` [Compound 13], the IC50 in series [1] is above 200 µM. In addition, the IC50 in series [2] is above 200 µM. For the same compound, in series [3], the “Cytotoxicity CC50 (C.I.95%)” value is reported as “lack of toxicity” and the CC50 was above 200 µM.

`Cc1cccc(SCC2=C(O)C(=O)c3ccccc3C2=O)c1` [Compound 14]: in series [1], the IC50 was above 200 µM. Besides, the IC50 in series [2] was above 200 µM. In series [3], the “Cytotoxicity CC50 (C.I.95%)” value is on record as “lack of toxicity” and the CC50 was above 200 µM.

Take `O=C1C(O)=C(CSc2ccc3ccccc3c2)C(=O)c2ccccc21` [Compound 15]: the half-inhibitory concentration (IC50) in series [1] and in series [2] was above 200 µM throughout. Also, the “Cytotoxicity CC50 (C.I.95%)” value in series [3] was “lack of toxicity”. Moreover, the CC50 in series [3] is above 200 µM.

Regarding `O=C1C(O)=C(C(Sc2ccc([N+](=O)[O-])cc2)c2ccccc2)C(=O)c2ccccc21` (stereo not drawn) [Compound 19], the IC50 in series [1] stood at 9.06 µM. Besides, the “Amastigotes IC50 (C.I.95%)” value in series [2] was “no activity”. For the same compound, the CC50 in series [3] came out at 69.5 µM.

`Cc1cccc(SC(C2=C(O)C(=O)c3ccccc3C2=O)c2ccccc2)c1` (stereo not drawn) [Compound 20]: the IC50 in series [1] amounted to 26.4 µM; in series [2] it was 14.7 µM. For the same compound, the CC50 in series [3] turned out to be 138 µM.

Consider `CCCSC(C1=C(O)C(=O)c2ccccc2C1=O)c1ccccc1` (stereo not drawn) [Compound 24], for which the IC50 in series [1] was above 200 µM. Further, the IC50 in series [2] is above 200 µM. In addition, in series [3], the “Cytotoxicity CC50 (C.I.95%)” value is listed as “lack of toxicity” and the CC50 is above 200 µM.

Take `Cc1ccc(SC(C2=C(O)C(=O)c3ccccc3C2=O)c2ccc([N+](=O)[O-])cc2)cc1` (stereo not drawn) [Compound 25]: the IC50 in series [1] was found to be 108 µM. Also, the “Amastigotes IC50 (C.I.95%)” value in series [2] was “no activity”. Moreover, the CC50 in series [3] came to 42.6 µM.

As for `O=C1C(O)=C(C(Sc2ccccc2)c2ccc([N+](=O)[O-])cc2)C(=O)c2ccccc21` (stereo not drawn) [Compound 28], the IC50 in series [1] was determined as 40.1 µM. In addition, in series [2], the “Amastigotes IC50 (C.I.95%)” value is listed as “no activity”. In addition, in series [3], the CC50 was 94.2 µM.

Take `Cc1ccccc1SC(C1=C(O)C(=O)c2ccccc2C1=O)c1ccc([N+](=O)[O-])cc1` (stereo not drawn) [Compound 34]: the IC50 in series [1] worked out at 82.9 µM. For the same compound, the “Amastigotes IC50 (C.I.95%)” value in series [2] is reported as “no activity”. Also, the CC50 in series [3] is 96 µM.

`CCCSC(C1=C(O)C(=O)c2ccccc2C1=O)c1ccc([N+](=O)[O-])cc1` (stereo not drawn) [Compound 35]: the IC50 in series [1] and in series [2] was above 200 µM in each case. Also, in series [3], the CC50 amounted to 75.1 µM.

In the case of `O=C1C(O)=C(C(Sc2ccc3ccccc3c2)c2ccc([N+](=O)[O-])cc2)C(=O)c2ccccc21` (stereo not drawn) [Compound 36], the IC50 in series [1] and in series [2] was above 200 µM each time. The half-maximal cytotoxic concentration (CC50) in series [3] was 58.2 µM.

For the compound `CCCCCCCCCCCCCCCCOP(=O)([O-])OCC[N+](C)(C)C` [miltefosine, reference compound], the 50% inhibitory concentration (IC50) in series [1] (Leishmania infantum) came out at 16.9 µM; in series [2] (Leishmania infantum, Peritoneal macrophage, in Mus musculus), 17.8 µM. Besides, the “S.I. selectivity index (CC50 mammalian cells/IC50 amastigotes)” value in series [2] (CC50 NCTC cells/IC50 amastigotes) worked out at 6.85. Besides, the CC50 at 48 h in series [4] amounted to 122 µM.

The term IC50 denotes the concentration that gives 50% inhibition. As usually defined, the CC50 is the concentration at which the toxic effect on the cells reaches its halfway point.
